Drawing on ChEMBL document CHEMBL5046258, “Anti-inflammatory Dimeric Benzophenones from an Endophytic Pleosporales Species” (J Nat Prod, 2022), this text covers IC50 for 16 molecules.

The experiment relates to RAW264.7. Description: Antiinflammatory activity in mouse RAW 264.7 cells assessed as inhibition of LPS-induced nitric oxide production measured after 24 hrs by Griess reagent assay. In kind it is functional, cell-based. The following applies: RAW264.7, 24 h. For orientation: Nitrite, measured by Griess reagent, commonly stands in for NO production.
For orientation: IC50 means the concentration needed to halve the response being measured. In the case of `COc1cc(O)c(C(=O)c2c(C)cc(OC)cc2OC)c(O)c1`, the IC50 came out at 45.2 µM.
The same measure for `C[C@@H]1C[C@H]2[C@@H]3CCC4=CC(=O)C=C[C@]4(C)[C@@]3(F)[C@@H](O)C[C@]2(C)[C@@]1(O)C(=O)CO` [DEXAMETHASONE]: 22.2 µM; for `COc1cc(C)c2c(=O)c3c(O)cc(OC)cc3oc2c1` [LICHEXANTHONE]: 19.5 µM; for `COc1cc(C)c(C(=O)c2c(O)cc(OC)cc2O[C@@H]2O[C@H](CO)[C@@H](O)[C@H](O)[C@H]2O)c(OC)c1`: 43.3 µM.
Take `Cc1cc(O)cc2oc(=O)c3c(O)cc(O)cc3c12` [ALTERNARIOL]: the IC50 was 51.4 µM.
For the molecule `COc1cc(C)c(C(=O)c2c(O)cc(O)cc2O)c(OC)c1`, the IC50 stood at 39 µM.
With `COc1cc(C)c(C(=O)c2c(O)cc(OC)c(Cc3c(O)cc(O)cc3CC(C)=O)c2O)c(OC)c1`, the IC50 was 18.1 µM.
As for `Cc1cc(O)cc2oc3cc(O)cc(O)c3c(=O)c12` [NORLICHEXANTHONE], the IC50 is 35.2 µM.
Regarding `Cc1cc2c(C)cc(O)cc2c(=O)o1`, the IC50 was determined as 46.1 µM.
Regarding `COc1cc(C)c(C(=O)c2c(O)cc(OC)c(Cc3c(OC)cc(O)c(C(=O)c4c(C)cc(OC)cc4OC)c3O)c2O)c(OC)c1`, the IC50 worked out at 8.8 µM.
Regarding `COc1cc(C)c(C(=O)c2c(O)cc(OC)cc2O[C@@H]2O[C@H](CO)[C@@H](O)[C@H](O)[C@H]2O)c(O)c1`, the IC50 was determined as 23.3 µM.
With `COc1cc(O)c(C(=O)c2c(C)cc(O)cc2OC)c(O)c1`, the IC50 turned out to be 35.1 µM.
Consider `COc1cc(O)c(C(=O)Oc2c(C)cc(O)cc2OC)c(O)c1`, for which the IC50 is 49.7 µM.
`COc1cc(O)c2c(=O)c3c(C)c(O)c(OC)cc3oc2c1`: the IC50 was determined as 22.4 µM.
Consider `COc1cc(C)c(C(=O)c2c(O)cc(OC)c(C(CCC(=O)O)c3c(OC)cc(O)c(C(=O)c4c(C)cc(OC)cc4OC)c3O)c2O)c(OC)c1`, for which the concentration for half-maximal inhibition (IC50) was found to be 15.6 µM.
As for `COc1cc(O)c2c(c1)C1=CC(=O)C(O)=CC1(C)OC2=O` (stereo unspecified) [DEHYDROALTENUSIN], the IC50 worked out at 39.1 µM.
